Experimental findings from patent US10556900B2, “TrkA kinase inhibitors, compositions and methods thereof” (Merck Sharp & Dohme Corp., priority 2015, dated 2020) are described below.

The structures appear in SMILES notation.

In this assay the target is human TrkA receptor (Homo sapiens (Human), UniProt P04629). In words: TrkA functional activity, DiscoverX PathHunter assay (NGF-stimulated U2OS cells). It is filed as cell-based. As to conditions: U2OS cells expressing human TrkA-Prolink, Shc1-EA and p75NTR; compound 1 h, then NGF (~80% of maximal response) 3 h; luminescence. How it is done:
TrkA functional activity was measured using a DiscoverX PathHunter assay. In this assay, U2OS cells express the human TrkA receptor as a fusion with the weakly complementing fragment of B-galactosidase, which DiscoverX calls “Prolink (PK)”; additionally, Shc1 is fused with a larger fragment, which is called “Enzyme Acceptor (EA)”. Activation of the TrkA receptor, upon NGF addition, results in the kinase domain being phosphorylated, resulting in subsequent recruitment of Shc1-EA protein. That recruitment results in an active B-galactosidase enzyme that is detected by addition of a chemiluminescent substrate. The human p75^NTR protein was also expressed as a co-receptor for NGF.
All reagents were purchased from DiscoverX, except for the receptor agonists (NGF, BDNF, NT3) which were purchased from Peprotech. Cells were expanded and frozen into cryovials, and stored in the vapor phase of liquid nitrogen, and thawed immediately before use. Thawed cells were added to a 384-well plate at 7500 cells/well, and allowed to incubate overnight. Compound at various concentrations was added the following morning and allowed to incubate on cells for 1 h. Then, NGF was added at a concentration sufficient to elicit ˜80% of a maximal response and allowed to incubate for 3 h at ambient temperature. DiscoverX PathHunter detection reagent was then added and the plate was further incubated for 1 h in the dark. The plate was then read via luminescence on the Perkin Elmer Envision.

human TrkA receptor, sequence (P04629 33-796): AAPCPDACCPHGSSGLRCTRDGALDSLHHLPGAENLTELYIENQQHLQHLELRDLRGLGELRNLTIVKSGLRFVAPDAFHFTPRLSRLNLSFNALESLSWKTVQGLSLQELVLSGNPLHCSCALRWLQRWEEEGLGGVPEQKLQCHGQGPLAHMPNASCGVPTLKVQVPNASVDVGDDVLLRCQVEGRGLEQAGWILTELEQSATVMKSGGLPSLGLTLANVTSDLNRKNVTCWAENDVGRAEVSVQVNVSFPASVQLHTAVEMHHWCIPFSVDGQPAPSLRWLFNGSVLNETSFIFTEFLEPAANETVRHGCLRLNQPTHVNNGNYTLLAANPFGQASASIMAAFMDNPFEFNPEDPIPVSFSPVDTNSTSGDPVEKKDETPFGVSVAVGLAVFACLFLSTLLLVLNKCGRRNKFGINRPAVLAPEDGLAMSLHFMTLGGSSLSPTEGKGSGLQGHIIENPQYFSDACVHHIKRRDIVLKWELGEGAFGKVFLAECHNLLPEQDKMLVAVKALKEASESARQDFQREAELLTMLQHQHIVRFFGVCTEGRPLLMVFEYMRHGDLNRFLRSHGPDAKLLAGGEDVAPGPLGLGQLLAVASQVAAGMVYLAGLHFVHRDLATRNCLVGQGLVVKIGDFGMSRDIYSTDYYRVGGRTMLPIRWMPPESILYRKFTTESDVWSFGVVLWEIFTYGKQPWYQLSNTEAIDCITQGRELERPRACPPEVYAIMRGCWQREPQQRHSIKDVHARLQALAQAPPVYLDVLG

`Cn1ccc(-c2cc(C(=O)Nc3c(-c4ccccc4)ccc4c(C(C)(C)O)cnn34)c(F)cc2C(F)(F)F)n1` [Compound 36, 2-Fluoro-N-(3-(2-hydroxypropan-2-yl)-6-phenylpyrazolo[1,5-a]pyridin-7-yl)-5-(1-methyl-1H-pyrazol-3-yl)-4-(trifluoromethyl)benzamide]: the midpoint of inhibition, the IC50, lay at 0.4 nM. With `Cn1ccc(-c2cc(C(=O)Nc3c(-c4ccccc4)ccc4c(C(C)(C)O)cnn34)ccc2C(F)(F)F)n1` [Compound 37, N-[3-(1-hydroxy-1-methylethyl)-6-phenylpyrazolo[1,5-a]pyridin-7-yl]-3-(1-methyl-1H-pyrazol-3-yl)-4-(trifluoromethyl)benzamide], half-maximal inhibition (IC50) required 4.5 nM. With `CC(C)(O)c1cnn2c(NC(=O)c3cc(-c4ncccn4)c(C(F)(F)F)cc3F)c(-c3ccccc3)ccc12` [Compound 38, 2-fluoro-N-[3-(1-hydroxy-1-methylethyl)-6-phenylpyrazolo[1,5-a]pyridin-7-yl]-5-pyrimidin-2-yl-4-(trifluoromethyl)benzamide] the figure was 1.8 nM; with `Cn1ccc(-c2cc(C(=O)Nc3c(-c4ccccc4)ccc4c(CO)cnn34)c(F)cc2C(F)(F)F)n1` [Compound 39, 2-fluoro-N-[3-(hydroxymethyl)-6-phenylpyrazolo[1,5-a]pyridin-7-yl]-5-(1-methyl-1H-pyrazol-3-yl)-4-(trifluoromethyl)benzamide], 0.33 nM; with `Cn1ccc(-c2cc(C(=O)Nc3c(-c4ccccc4)ccc4c(CO)cnn34)ccc2C(F)(F)F)n1` [Compound 40, N-[3-(hydroxymethyl)-6-phenylpyrazolo[1,5-a]pyridin-7-yl]-3-(1-methyl-1H-pyrazol-3-yl)-4-(trifluoromethyl)benzamide], 1.4 nM. With `O=C(Nc1c(-c2ccccc2)ccc2c(CO)cnn12)c1cc(-c2ncccn2)c(C(F)(F)F)cc1F` [Compound 41, 2-fluoro-N-[3-(hydroxymethyl)-6-phenylpyrazolo[1,5-a]pyridin-7-yl]-5-pyrimidin-2-yl-4-(trifluoromethyl)benzamide] the figure was 2.1 nM. The compound `Cn1ccc(-c2cc(C(=O)Nc3c(-c4ccccc4)ccc4cc(C(C)(C)O)[nH]c34)ccc2C(F)(F)F)n1` [Compound 42, N-(2-(2-Hydroxypropan-2-yl)-6-phenyl-1H-indol-7-yl)-3-(1-methyl-1H-pyrazol-3-yl)-4-(trifluoromethyl)benzamide] yielded an IC50 of 0.66 nM.

The compound `CC(=O)c1c[nH]c2c(NC(=O)c3ccc(C(F)(F)F)c(-c4ccn(C)n4)c3)c(-c3ccccc3)ccc12` [Compound 43, N-(3-Acetyl-6-phenyl-1H-indol-7-yl)-3-(1-methyl-1H-pyrazol-3-yl)-4-(trifluoromethyl)benzamide] displayed an IC50 of 5 nM.

Compound `CC(C)(O)c1cc2cc(-c3ccccc3)c(NC(=O)c3cc(-c4ncccn4)c(C(F)(F)F)cc3F)cc2[nH]1` [Compound 44, 2-Fluoro-N-(2-(2-hydroxypropan-2-yl)-5-phenyl-1H-indol-6-yl)-5-(pyrimidin-2-yl)-4-(trifluoromethyl)benzamide] came in with an IC50 of 96 nM. With `CC(C)(O)c1n[nH]c2c(NC(=O)c3cc(-c4ncccn4)c(C(F)(F)F)cc3F)c(-c3ccccc3)ccc12` [Compound 45, 2-Fluoro-N-(3-(2-hydroxypropan-2-yl)-6-phenyl-1H-indazol-7-yl)-5-(pyrimidin-2-yl)-4-(trifluoromethyl)benzamide] the figure was 4.3 nM; with `NC(=O)Cc1cnc2c(NC(=O)c3cc(-c4ncccn4)c(C(F)(F)F)cc3F)c(-c3ccccc3)ccn12` [Compound 50, N-(3-(2-Amino-2-oxoethyl)-7-phenylimidazo[1,2-a]pyridin-8-yl)-2-fluoro-5-(pyrimidin-2-yl)-4-(trifluoromethyl)benzamide], 28 nM. In the case of `O=C(Nc1c(-c2ccc(F)cc2)ccn2c(CO)cnc12)c1cc(-c2ncccn2)c(C(F)(F)F)cc1F` [Compound 51, 2-Fluoro-N-(7-(4-fluorophenyl)-3-(hydroxymethyl)imidazo[1,2-a]pyridin-8-yl)-5-(pyrimidin-2-yl)-4-(trifluoromethyl)benzamide] it was 60 nM. `CC(C)(O)c1cnc2c(NC(=O)c3cc(-c4ncccn4)c(C(F)(F)F)cc3F)c(-c3ccc(F)cc3)ccn12` [Compound 54, 2-fluoro-N-[7-(4-fluorophenyl)-3-(1-hydroxy-1-methylethyl)imidazo[1,2-a]pyridin-8-yl]-5-pyrimidin-2-yl-4-(trifluoromethyl)benzamide]: the IC50 was found to be 58 nM. The compound `Cc1ccccc1-c1ccn2c(C(C)(C)O)cnc2c1NC(=O)c1cc(-c2ncccn2)c(C(F)(F)F)cc1F` [Compound 55, 2-Fluoro-N-(3-(2-hydroxypropan-2-yl)-7-(o-tolyl)imidazo[1,2-a]pyridin-8-yl)-5-(pyrimidin-2-yl)-4-(trifluoromethyl)benzamide] yielded an IC50 of 82 nM. In turn, `Cc1ccccc1-c1ccn2c(C(N)=O)cnc2c1NC(=O)c1cc(-c2ccn(C)n2)c(C(F)(F)F)cc1F` [Compound 56, 8-(2-Fluoro-5-(1-methyl-1H-pyrazol-3-yl)-4-(trifluoromethyl)benzamido)-7-(o-tolyl)imidazo[1,2-a]pyridine-3-carboxamide] gave an IC50 of 29 nM. Consider `CC(C)(O)c1cnc2c(NC(=O)c3cc(-c4ncccn4)c(C(F)(F)F)cc3F)c(-c3cccc(CO)c3)ccn12` [Compound 57, 2-Fluoro-N-(7-(3-(hydroxymethyl)phenyl)-3-(2-hydroxypropan-2-yl)imidazo[1,2-a]pyridin-8-yl)-5-(pyrimidin-2-yl)-4-(trifluoromethyl)benzamide], for which the IC50 amounted to 201 nM. In the case of `O=C(Nc1c(-c2cccc(CO)c2)ccn2ccnc12)c1cc(-c2ncccn2)c(C(F)(F)F)cc1F` [Compound 58, 2-Fluoro-N-(7-(3-(hydroxymethyl)phenyl)imidazo[1,2-a]pyridin-8-yl)-5-(pyrimidin-2-yl)-4-(trifluoromethyl)benzamide], the IC50 was found to be 232 nM. In the case of `CC(C)(O)c1ncn2c(NC(=O)c3cc(-c4ncccn4)c(C(F)(F)F)cc3F)c(-c3ccccc3)ccc12` [Compound 59] it was 25 nM; in that of `Cn1ccc(-c2cc(C(=O)Nc3cn4c(CO)ncc4nc3-c3ccccc3)c(F)cc2C(F)(F)F)n1` [Compound 61, 2-Fluoro-N-(6-(hydroxymethyl)-2-phenylimidazo[1,5-a]pyrimidin-3-yl)-5-(1-methyl-1H-pyrazol-3-yl)-4-(trifluoromethyl)benzamide], 4 nM; in that of `Cc1ncc2nc(-c3ccccc3)c(NC(=O)c3ccc(C(F)(F)F)c(-c4ccn(C)n4)c3)cn12` [Compound 62, 3-(1-Methyl-1H-pyrazol-3-yl)-N-(6-methyl-2-phenylimidazo[1,5-a]pyrimidin-3-yl)-4-(trifluoromethyl)benzamide], 47 nM. Turning to `Cn1ccc(-c2cc(C(=O)Nc3cn4c(C(=O)O)ncc4nc3-c3ccccc3)c(F)cc2C(F)(F)F)n1` [Compound 63, 3-(2-Fluoro-5-(1-methyl-1H-pyrazol-3-yl)-4-(trifluoromethyl)benzamido)-2-phenylimidazo[1,5-a]pyrimidine-6-carboxylic acid], half-maximal inhibition (IC50) was put at 32 nM.

Compound `Cn1ccc(-c2cc(C(=O)Nc3cn4cncc4nc3-c3ccccc3)c(F)cc2C(F)(F)F)n1` [Compound 64, 2-Fluoro-5-(1-methyl-1H-pyrazol-3-yl)-N-(2-phenylimidazo[1,5-a]pyrimidin-3-yl)-4-(trifluoromethyl)benzamide] gave an IC50 of 5.5 nM. `Cn1ccc(-c2cc(C(=O)Nc3cn4c(CO)ncc4cc3-c3ccccc3)c(F)cc2C(F)(F)F)n1` [Compound 65, 2-Fluoro-N-(3-(hydroxymethyl)-7-phenylimidazo[1,5-a]pyridin-6-yl)-5-(1-methyl-1H-pyrazol-3-yl)-4-(trifluoromethyl)benzamide] displayed an IC50 of 4.4 nM. In the case of `CCOC(=O)c1cnc2c(NC(=O)c3cc(-c4ccn(C)n4)c(C(F)(F)F)s3)c(-c3ccccc3)ccn12` [Compound 66, Ethyl 8-(4-(1-methyl-1H-pyrazol-3-yl)-5-(trifluoromethyl)thiophene-2-carboxamido)-7-phenylimidazo[1,2-a]pyridine-3-carboxylate] it was 204 nM; in that of `Cn1ccc(-c2cc(C(=O)Nc3c(-c4ccccc4)ccn4c(C(N)=O)cnc34)sc2C(F)(F)F)n1` [Compound 67, 8-(4-(1-Methyl-1H-pyrazol-3-yl)-5-(trifluoromethyl)thiophene-2-carboxamido)-7-phenylimidazo[1,2-a]pyridine-3-carboxamide], 56 nM; in that of `Cn1ccc(-c2cc(C(=O)Nc3c(-c4ccccc4)ccn4c(CO)cnc34)sc2C(F)(F)F)n1` [Compound 68, N-(3-(Hydroxymethyl)-7-phenylimidazo[1,2-a]pyridin-8-yl)-4-(1-methyl-1H-pyrazol-3-yl)-5-(trifluoromethyl)thiophene-2-carboxamide], 48 nM.

`O=C(Nc1c(-c2ccccc2)ncn2c(CO)cnc12)c1cc(-c2ncccn2)c(C(F)(F)F)cc1F` [Compound 69, 2-Fluoro-N-(3-(hydroxymethyl)-7-phenylimidazo[1,2-c]pyrimidin-8-yl)-5-(pyrimidin-2-yl)-4-(trifluoromethyl)benzamide] had a half-maximal inhibitory concentration (IC50) of 6.5 nM.

As usually defined, the IC50 is the concentration that inhibits the measured activity by half.
